The subject of assay [1] is Myotonic Dystrophy 1 affected patient fibroblasts (Coriel GM04602; 1600 CTG repeats). Description: DM1 foci reduction assay (EC50 assay; CAG10-Cy3 FISH, foci per nucleus). The following applies: Homo sapiens, Fibroblast; DM1 patient fibroblasts, 48 h treatment, foci per nucleus; read-out: DM1 EC50, 48 h. Format: cell-based. The procedure, abridged: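 Foci per nucleus counted by 20× imaging of 4 areas per well, after overnight FISH with 5 nM CAG10-Cy3 and DAPI staining of fixed, permeabilized cells. DM1 fibroblasts (GM04602, 1600 CTG) were dosed 48 h at 37 °C, 8 points, 3-fold dilutions, 3 μM top concentration.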

A further assay deals with F35T cells. Kind of assay: Foci reduction in FECD (CAG10-Cy3 FISH, foci per nucleus). The class given is cell-based. The note with it: F35T cells, 48 h treatment, foci per nucleus; read-out: FECD EC50, 48 h. On the procedure:
F35T cells were cultured in media containing Opti-MEM (ThermoFisher) supplemented with 8% FBS, 20 μg/mL ascorbic acid, […] CaCl2, 0.08% chondroitin sulfate, 1×Pen/Strep, 100 μg/mL bovine pituitary extract, 5 ng/mL epidermal growth factor, and 20 ng/mL nerve growth factor. Throughout the culture, cells were maintained in an incubator at 37° C. and 5% CO2. Media was refreshed every 48 hours. Once cells reached adequate confluency, they were harvested and seeded in 96 well plates with a density of 5000 cells per well in 200 μL of the supplemented Opti-MEM media. Cells were returned to the incubator and left to settle for 24 hours at 37° C. and 5% CO2. Cells were then treated in 8-point dose response with compounds or negative controls and incubated for 48 hours at 37° C. and 5% CO2. After treatment, cells were fixed with 4% PFA for 20 minutes at room temperature, followed by permeabilization with 70% ethanol. Cells were incubated at −20° C. for a minimum of 1 hour and maximum of 72 hours, after which the ethanol was removed, and cells were washed with PBS. Cells were rehydrated with 30% formamide and 2×SSC buffer for 10 minutes at room temperature. Cells were then incubated overnight at 37° C. in the hybridization solution containing 30% formamide, 2×SSC, 55 mg/mL dextran sulfate, 2.75 mg/mL bovine serum albumin, 0.2 μg/mL Herring sperm DNA, 1% vanadyl-ribonucleoside complex, and 0.05% 10 μM CAG10-Cy3 probe. Cells were washed twice with 30% formamide in 2×SSC, incubating the cells while shaking with the second wash at 37° C. and 200 rpm for 60 minutes. Cells were stained with 5 mg/mL DAPI 1:1000 in PBS, incubating at room temperature for 5 minutes. Cells were then washed with PBS and sealed with adhesive foil, with each well containing a final volume of 150 μL PBS. Cells were imaged on a Cytation 5 and analyzed on a foci per nucleus basis.

The EC50 is the concentration at which the effect is half-maximal. On to `CCCCCNC(=O)CCNC(=O)c1nc(NC(=O)c2cc(NC(=O)CCNC(=O)c3nc(NC(=O)CCCNC(=O)c4cc(NC(=O)c5nc(NC(=O)CCNC(=O)c6cc(NC(=O)c7nccn7C)cn6C)cn5C)cn4C)cn3C)cn2C)cn1C` [Compound B-39], for which the EC50 (in assay [1]; in the assay on F35T cells) was below 100 nM in each case.

Consider `CN(C)CCOCCNC(=O)CCNC(=O)c1nc(NC(=O)c2cc(NC(=O)CCNC(=O)c3nc(NC(=O)CCCNC(=O)c4cc(NC(=O)c5nc(NC(=O)CCNC(=O)c6cc(NC(=O)c7nccn7C)cn6C)cn5C)cn4C)cn3C)cn2C)cn1C` [Compound B-42], for which the concentration for a half-maximal effect (EC50) (in assay [1]; in the assay on F35T cells) was 100 to 500 nM in each case.

As to `CCCNC(=O)c1nc(NC(=O)c2cc(NC(=O)CCNC(=O)c3nc(NC(=O)CCCNC(=O)c4cc(NC(=O)c5nc(NC(=O)CCNC(=O)c6cc(NC(=O)c7nccn7C)cn6C)cn5C)cn4C)cn3C)cn2C)cn1C` [Compound B-43], the 50% effective concentration (EC50) (in assay [1]; in the assay on F35T cells) was below 100 nM each time.

On to `CCCNC(=O)c1nc(NC(=O)CCNC(=O)c2cc(NC(=O)c3nc(NC(=O)CCCNC(=O)c4cc(NC(=O)c5nc(NC(=O)CCNC(=O)c6cc(NC(=O)c7nccn7C)cn6C)cn5C)cn4C)cn3C)cn2C)cn1C` [Compound B-44], for which the EC50 (in assay [1]; in the assay with F35T cells) was above 1000 nM each time.

On to `Cn1cc(NC(=O)c2nc(NC(=O)CCNC(=O)c3cc(NC(=O)c4nccn4C)cn3C)cn2C)cc1C(=O)NCCCC(=O)Nc1cn(C)c(C(=O)NCCC(=O)Nc2cc(C(=O)Nc3cn(C)c(C(=O)NCCC(=O)NCCCCN=[N+]=[N-])n3)n(C)c2)n1` [Compound B-45], for which the EC50 in assay [1] is below 100 nM; in the assay with F35T cells, 500 to 1000 nM.

On to `Cn1cc(NC(=O)c2nc(NC(=O)CCNC(=O)c3cc(NC(=O)c4nccn4C)cn3C)cn2C)cc1C(=O)NCCCC(=O)Nc1cn(C)c(C(=O)NCCC(=O)Nc2cc(C(=O)Nc3cn(C)c(C(=O)NCCC(=O)NC(CO)(CO)CO)n3)n(C)c2)n1` [Compound B-46], for which the EC50 in assay [1] was 500 to 1000 nM; in the assay on F35T cells it was 100 to 500 nM.

`Cn1cc(NC(=O)c2nc(NC(=O)CCNC(=O)c3cc(NC(=O)c4nccn4C)cn3C)cn2C)cc1C(=O)NCCCC(=O)Nc1cn(C)c(C(=O)NCCC(=O)Nc2cc(C(=O)Nc3cn(C)c(C(=O)NCCC(=O)NC(C)(C)C)n3)n(C)c2)n1` [Compound B-47]: the EC50 (in assay [1]; with F35T cells) was 100 to 500 nM throughout.

Consider `Cn1cc(NC(=O)c2nc(NC(=O)CCNC(=O)c3cc(NC(=O)c4nccn4C)cn3C)cn2C)cc1C(=O)NCCCC(=O)Nc1cn(C)c(C(=O)NCCC(=O)Nc2cc(C(=O)Nc3cn(C)c(C(=O)NCCC(=O)N4CCOCC4)n3)n(C)c2)n1` [Compound B-48], for which the EC50 (in assay [1]; in the assay with F35T cells) was 100 to 500 nM in each case.

On to `Cn1cc(NC(=O)c2nc(NC(=O)CCNC(=O)c3cc(NC(=O)c4nccn4C)cn3C)cn2C)cc1C(=O)NCCCC(=O)Nc1cn(C)c(C(=O)NCCC(=O)Nc2cc(C(=O)Nc3cn(C)c(C(=O)NCCC(=O)N4CCNCC4)n3)n(C)c2)n1` [Compound B-49], for which the EC50 (in assay [1]; in the assay on F35T cells) was 100 to 500 nM throughout.

As for `CCCN(CCC)C(=O)CCNC(=O)c1nc(NC(=O)c2cc(NC(=O)CCNC(=O)c3nc(NC(=O)CCCNC(=O)c4cc(NC(=O)c5nc(NC(=O)CCNC(=O)c6cc(NC(=O)c7nccn7C)cn6C)cn5C)cn4C)cn3C)cn2C)cn1C` [Compound B-50], the EC50 in assay [1] is 100 to 500 nM; with F35T cells, below 100 nM.

As for `Cn1cc(NC(=O)c2nc(NC(=O)CCNC(=O)c3cc(NC(=O)c4nccn4C)cn3C)cn2C)cc1C(=O)NCCCC(=O)Nc1cn(C)c(C(=O)NCCC(=O)Nc2cc(C(=O)Nc3cn(C)c(C(=O)NCCC(=O)NCCCO)n3)n(C)c2)n1` [Compound B-52], the EC50 (in assay [1]; with F35T cells) was below 100 nM each time.

On to `CCCNC(=O)CCNC(=O)c1nc(NC(=O)c2cc(NC(=O)CCNC(=O)c3nc(NC(=O)CCCNC(=O)c4cc(NC(=O)c5nc(NC(=O)CCNC(=O)c6cc(NC(=O)c7nccn7C)cn6C)cn5C)cn4C)cn3C)cn2CCCCCCN)cn1C` [Compound B-57], for which the EC50 in assay [1] was in the range of 100 to 500 nM; in the assay with F35T cells it was 500 to 1000 nM.

`CCCNC(=O)CCNC(=O)c1nc(NC(=O)c2cc(NC(=O)CCNC(=O)c3nc(NC(=O)CCCNC(=O)c4cc(NC(=O)c5nc(NC(=O)CCNC(=O)c6cc(NC(=O)c7nccn7C)cn6C)cn5C)cn4CCCCCCN=[N+]=[N-])cn3C)cn2C)cn1C` [Compound B-58]: the EC50 (in assay [1]; in the assay on F35T cells) was below 100 nM each time.

Consider `CCCNC(=O)CCNC(=O)c1nc(NC(=O)c2cc(NC(=O)CCNC(=O)c3nc(NC(=O)CCCNC(=O)c4cc(NC(=O)c5nc(NC(=O)CCNC(=O)c6cc(NC(=O)c7nccn7C)cn6C)cn5C)cn4CCCCCCN)cn3C)cn2C)cn1C` [Compound B-59], for which the EC50 (in assay [1]; with F35T cells) was 100 to 500 nM each time.

Consider `CCCNC(=O)CCNC(=O)c1nc(NC(=O)c2cc(NC(=O)CCNC(=O)c3nc(NC(=O)CCCNC(=O)c4cc(NC(=O)c5nc(NC(=O)CCNC(=O)c6cc(NC(=O)c7nccn7C)cn6C)cn5C)cn4C)cn3C)c[nH]2)cn1C` [Compound B-63], for which the EC50 (in assay [1]; in the assay on F35T cells) was 100 to 500 nM in each case.

With `Cn1cc(NC(=O)c2nc(NC(=O)CCNC(=O)c3cc(NC(=O)c4nccn4C)cn3C)cn2C)cc1C(=O)NCCCC(=O)Nc1cn(C)c(C(=O)NCCC(=O)Nc2cc(C(=O)Nc3cn(C)c(C(=O)NCCC(=O)N4CC(c5cnc(CNC(=O)OCc6ccccc6)[nH]5)C4)n3)n(C)c2)n1` [Compound B-68], the EC50 (in assay [1]; with F35T cells) was 100 to 500 nM throughout.

As to `CN(C)Cc1ncc(C2CN(C(=O)CCNC(=O)c3nc(NC(=O)c4cc(NC(=O)CCNC(=O)c5nc(NC(=O)CCCNC(=O)c6cc(NC(=O)c7nc(NC(=O)CCNC(=O)c8cc(NC(=O)c9nccn9C)cn8C)cn7C)cn6C)cn5C)cn4C)cn3C)C2)[nH]1` [Compound B-69], the 50% effective concentration (EC50) (in assay [1]; in the assay with F35T cells) was 100 to 500 nM each time.

`Cn1cc(NC(=O)c2nc(NC(=O)CCNC(=O)c3cc(NC(=O)c4nccn4C)cn3C)cn2C)cc1C(=O)NCCCC(=O)Nc1cn(C)c(C(=O)NCCC(=O)Nc2cc(C(=O)Nc3cn(C)c(C(=O)NCCC(=O)N4CC(c5cnc(CNC(=O)c6ccc(C(C)(C)C)cc6)[nH]5)C4)n3)n(C)c2)n1` [Compound B-71]: the EC50 (in assay [1]; in the assay with F35T cells) was 100 to 500 nM throughout.

As for `CN(C)C(=NCCCNC(=O)CCNC(=O)c1nc(NC(=O)c2cc(NC(=O)CCNC(=O)c3nc(NC(=O)CCCNC(=O)c4cc(NC(=O)c5nc(NC(=O)CCNC(=O)c6cc(NC(=O)c7nccn7C)cn6C)cn5C)cn4C)cn3C)cn2C)cn1C)N(C)C` [Compound B-72], the EC50 is 500 to 1000 nM in assay [1] and above 1000 nM in the assay on F35T cells.

With `Cn1cc(NC(=O)c2nc(NC(=O)CCNC(=O)c3cc(NC(=O)c4nccn4C)cn3C)cn2C)cc1C(=O)NCCCC(=O)Nc1cn(C)c(C(=O)NCCC(=O)Nc2cc(C(=O)Nc3cn(C)c(C(=O)NCCC(=O)OCC(N)(CO)CO)n3)n(C)c2)n1` [Compound B-73], the EC50 was 500 to 1000 nM in assay [1] and above 1000 nM with F35T cells.

For `CCCNC(=O)CCNC(=O)c1nc(NC(=O)CCNC(=O)c2cc(NC(=O)c3nc(NC(=O)CCCNC(=O)c4cc(NC(=O)c5nc(NC(=O)CCNC(=O)c6cc(NC(C)c7nccn7C)cn6C)cn5C)cn4C)cn3C)cn2C)cn1C` (centres unmarked) [Compound B-74], the values for the EC50 (in assay [1]; in the assay with F35T cells) were above 1000 nM and 500 to 1000 nM, respectively.

For `CC(Nc1cc(C(=O)NCCC(=O)Nc2cn(C)c(C(=O)Nc3cc(C(=O)NCCCC(=O)Nc4cn(C)c(C(=O)Nc5cc(C(=O)NCCC(=O)Nc6cn(C)c(C(=O)NCCC(=O)NCCCCN=[N+]=[N-])n6)n(C)c5)n4)n(C)c3)n2)n(C)c1)c1nccn1C` (centres unmarked) [Compound B-75], the EC50 in assay [1] was 500 to 1000 nM; in the assay with F35T cells it was above 1000 nM.

Regarding `CC(=O)NCCOCCOCCOCCOCCOCCNC(=O)CCNC(=O)c1nc(NC(=O)c2cc(NC(=O)CCNC(=O)c3nc(NC(=O)CCCNC(=O)c4cc(NC(=O)c5nc(NC(=O)CCNC(=O)c6cc(NC(C)c7nccn7C)cn6C)cn5C)cn4C)cn3C)cn2C)cn1C` (centres unmarked) [Compound B-76], the EC50 (in assay [1]; with F35T cells) was 100 to 500 nM each time.

`CC(Nc1cc(C(=O)NCCC(=O)Nc2cn(C)c(C(=O)Nc3cc(C(=O)NCCCC(=O)Nc4cn(C)c(C(=O)NCCC(=O)Nc5cc(C(=O)Nc6cn(C)c(C(=O)NCCC(=O)NCCOCCOCCOCCOCCOCCN)n6)n(C)c5)n4)n(C)c3)n2)n(C)c1)c1nccn1C` (centres unmarked) [Compound B-77]: the EC50 (in assay [1]; in the assay on F35T cells) was 100 to 500 nM each time.

Regarding `COCCOCCOCCOCCOCCOCCNC(=O)CCNC(=O)c1nc(NC(=O)c2cc(NC(=O)CCNC(=O)c3nc(NC(=O)CCCNC(=O)c4cc(NC(=O)c5nc(NC(=O)CCNC(=O)c6cc(NC(C)c7nccn7C)cn6C)cn5C)cn4C)cn3C)cn2C)cn1C` (centres unmarked) [Compound B-78], the EC50 (in assay [1]; in the assay with F35T cells) was 100 to 500 nM throughout.

(Values after patent US20250368628A1, “METHODS AND COMPOUNDS FOR MODULATING INHERITED GENETIC DISEASES” (Design Therapeutics, Inc., priority 2022, published 2025).)
